Assay results taken from EPA's ToxRefDB 2.

Columns and labels:
[1] = system: rat; conditions: Chronic toxicity; sprague dawley; Oral; Gavage/Intubation; dose end: 6 month; group: systemic; systemic / clinical chemistry / estradiol / estradiol + systemic / clinical chemistry / prolactin / prolactin + systemic / clinical …
[2] = system: rat; conditions: Prenatal developmental toxicity study, sprague dawley, Oral, Gavage/Intubation, dose end: 17 GD, group: maternal
[3] = system: rat; conditions: Fertility (Segment I), sprague dawley, Oral, Gavage/Intubation, dose end: 7 GD
[4] = system: rat; conditions: Sub-acute repeat dose toxicity, sprague dawley, Oral, Gavage/Intubation, dose end: 1 month, group: systemic
[5] = system: mouse; conditions: Subchronic oral toxicity in rodents, cd1, Gavage/Intubation, dose end: 13 weeks, group: systemic, systemic / in life observation / body weight / body weight + systemic / in life observation / body weight / body weight gain + systemic / in…
[6] = system: dog; conditions: Sub-acute repeat dose toxicity, beagle, Oral, Gavage/Intubation, dose end: 4 week, group: systemic
[7] = system: rat; conditions: Prenatal developmental toxicity study, Sprague Dawley OFA, Oral, Gavage/Intubation, dose end: 17 GD, group: maternal
[8] = system: dog; conditions: Chronic toxicity, beagle, Oral, Gavage/Intubation, dose end: 12 month, group: systemic
[9] = system: rabbit; conditions: Prenatal developmental toxicity study, other, Oral, Gavage/Intubation, dose end: 18 GD
[10] = system: rat; conditions: Fertility (Segment I), sprague dawley, Oral, Gavage/Intubation, dose end: 7 GD; remark: listed apart in the source
[11] = system: rat; conditions: Sub-acute repeat dose toxicity, other, Oral, Gavage/Intubation, dose end: 29 day, group: systemic
[12] = system: dog; conditions: Chronic toxicity, beagle, Oral, Gavage/Intubation, dose end: 6 month, group: systemic
[13] = system: rat; conditions: Fertility (Segment I), sprague dawley, Oral, Gavage/Intubation, dose end: 14 GD
[14] = systemic / in life observation / body weight / body weight gain + systemic / in life observation / clinical signs / drooping eyelids (ptosis…
[15] = group: maternal, reproductive / reproductive performance / estrous cycle / abnormal + reproductive / reproductive performance / estrous cycle / length
[16] = group: maternal, reproductive / reproductive performance / estrous cycle / abnormal + reproductive / reproductive performance / estrous cycle / length + …
[17] = group: parental, systemic / in life observation / body weight / body weight gain + systemic / in life observation / clinical signs / drooping eyelids (ptosis…
[18] = systemic / clinical chemistry / triglycerides / triglycerides + systemic / in life observation / body weight / body weight gain + systemic…
[19] = systemic / pathology gross / vagina / dilatation + systemic / pathology gross / skin / [other]
[20] = systemic / in life observation / clinical signs / pulse/pressure + systemic / urinalysis / protein / protein
[21] = systemic / in life observation / clinical signs / pulse/pressure + systemic / urinalysis / protein / protein + systemic / in life …
[22] = systemic / in life observation / body weight / body weight + systemic / in life observation / clinical signs / drooping eyelids (ptosis)
[23] = systemic / in life observation / clinical signs / drooping eyelids (ptosis)
[24] = systemic / clinical chemistry / bilirubin / total bilirubin + systemic / hematology / platelet / platelet + systemic / in life observation…
[25] = systemic / clinical chemistry / bilirubin / total bilirubin + systemic / in life observation / clinical signs / [other] + systemic / in life…
[26] = group: developmental, systemic / in life observation / body weight / fetal weight
[27] = group: maternal, systemic / in life observation / body weight / body weight gain + systemic / in life observation / food consumption / food consumption + …
[28] = group: maternal, reproductive / reproductive performance / fertility / fertility + reproductive / reproductive performance / implantations / implantations + …
[29] = group: parental, systemic / in life observation / clinical signs / drooping eyelids (ptosis) + systemic / pathology gross / vagina / dilatation
[30] = systemic / hematology / platelet / platelet + systemic / in life observation / body weight / body weight + systemic / in life observation / …
[31] = systemic / in life observation / clinical signs / drooping eyelids (ptosis) + systemic / in life observation / clinical signs / lacrimation …
[32] = systemic / clinical chemistry / albumin / albumin + systemic / clinical chemistry / albumin-globulin ratio / albumin-globulin ratio + …
[33] = systemic / in life observation / clinical signs / [other] + systemic / in life observation / clinical signs / defecation (diarrhea) + …
[34] = group: maternal, reproductive / reproductive performance / fertility / fertility
[35] = group: parental, systemic / in life observation / body weight / body weight gain + systemic / in life observation / clinical signs / [other] + systemic / in …

`NC(=O)Cn1c(=O)cc(CCN2CCN(c3nccc4sccc34)CC2)c2ccc(F)cc21` [Trelanserin] showed an LEL [1] of 4 mg/kg/day, an LOAEL [1] of 20 mg/kg/day and an NEL [1] of less than 4 mg/kg/day. For the same compound, the NOAEL [1] was 4 mg/kg/day, the LOAEL [2, 14] was greater than 20 mg/kg/day and the NEL [2, 14] was 1 mg/kg/day. For the same compound, the NOAEL [2, 14] was no less than 20 mg/kg/day, the LEL ([2]; systemic / in life observation / clinical signs / drooping eyelids (ptosis) + systemic / in life observation / clinical signs / red or …) was 5 mg/kg/day and the LEL [3, 15] was 4 mg/kg/day. For the same compound, the NEL [3, 15] was less than 4 mg/kg/day, the LOAEL [3, 16] was greater than 20 mg/kg/day and the NOAEL [3, 16] was no less than 20 mg/kg/day. It also gave an LEL [3, 17] of 10 mg/kg/day, an LOAEL [3, 17] greater than 20 mg/kg/day and an NEL [3, 17] of 4 mg/kg/day. For the same compound, the NOAEL [3, 17] was no less than 20 mg/kg/day, the LOAEL [4, 18] was 20 mg/kg/day and the NOAEL [4, 18] was 2 mg/kg/day. For the same compound, the LEL [4, 19] was 2 mg/kg/day, the NEL [4, 19] was less than 2 mg/kg/day and the LEL [5] was 62.5 mg/kg/day. It also gave an LOAEL [5] of 250 mg/kg/day, an NEL [5] of less than 62.5 mg/kg/day and an NOAEL [5] of 125 mg/kg/day. It also gave an LEL [6, 20] of 1 mg/kg/day, an NEL [6, 20] of less than 1 mg/kg/day and an LOAEL [6, 21] greater than 16 mg/kg/day. For the same compound, the NOAEL [6, 21] was no less than 16 mg/kg/day, the LOAEL [7, 22] was greater than 20 mg/kg/day and the NOAEL [7, 22] was no less than 20 mg/kg/day. For the same compound, the LEL [7, 23] was 5 mg/kg/day, the NEL [7, 23] was less than 5 mg/kg/day and the LOAEL [8, 24] was greater than 80 mg/kg/day. It also gave an NOAEL [8, 24] of no less than 80 mg/kg/day, an LEL [8, 25] of 2 mg/kg/day and an NEL [8, 25] of less than 2 mg/kg/day. For the same compound, the LEL [9, 26] was 10 mg/kg/day, the LOAEL [9, 26] was greater than 30 mg/kg/day and the NEL [9, 26] was 5 mg/kg/day. For the same compound, the NOAEL [9, 26] was no less than 30 mg/kg/day, the LEL ([9]; group: maternal, reproductive / reproductive performance / postimplantation loss / postimplantation loss) was 5 mg/kg/day and the NEL ([9]; group: maternal, reproductive / reproductive performance / postimplantation loss / postimplantation loss + systemic / in life observation / body weight / …) was 2 mg/kg/day. For the same compound, the LOAEL [9, 27] was greater than 30 mg/kg/day, the NOAEL [9, 27] was no less than 30 mg/kg/day and the LEL [10, 28] was 80 mg/kg/day. For the same compound, the LOAEL [10, 28] was greater than 80 mg/kg/day, the NEL [10, 28] was less than 80 mg/kg/day and the NOAEL [10, 28] was no less than 80 mg/kg/day. The LEL [10, 29] was 80 mg/kg/day, the LOAEL [10, 29] was greater than 80 mg/kg/day and the NEL [10, 29] was less than 80 mg/kg/day. For the same compound, the NOAEL [10, 29] was no less than 80 mg/kg/day, the LOAEL [11, 30] was greater than 100 mg/kg/day and the NOAEL [11, 30] was no less than 100 mg/kg/day. For the same compound, the LEL [11, 31] was 4 mg/kg/day, the NEL [11, 31] was less than 4 mg/kg/day and the LOAEL [12, 32] was greater than 100 mg/kg/day. The NOAEL [12, 32] was no less than 100 mg/kg/day, the LEL [12, 33] was 4 mg/kg/day and the NEL [12, 33] was less than 4 mg/kg/day. It also gave an LEL [13, 34] of 150 mg/kg/day, an LOAEL [13, 34] greater than 150 mg/kg/day and an NEL [13, 34] of 20 mg/kg/day. The NOAEL [13, 34] was no less than 150 mg/kg/day, the LOAEL [13, 35] was greater than 150 mg/kg/day and the NEL [13, 35] was 4 mg/kg/day. It also gave an NOAEL [13, 35] of no less than 150 mg/kg/day and an LEL ([13]; group: parental, systemic / in life observation / clinical signs / [other] + systemic / in life observation / clinical signs / drooping eyelids (ptosis) + …) of 20 mg/kg/day.
